Assay results: patent publication US4990531A, “Derivatives of 1-arylsulphonyl-2-pyrrolidinone and their use as medicaments” (Roussel Uclaf, priority 1988, dated 1991)
Where two headings read alike, the source gives them in different places. Values belong to the compound of their own block, whether it stands above or below them.

Experiments:
[1] = Solubility in various solvents; type: physicochemical
[2] = test system: cholinomimetic effects induced by carbachol; assay: In vivo anticholinergic action: inhibition of carbachol-induced cholinomimetic effects; parameters: species or system CD1 male mice; conditions: for ED50 / ED (1 degree C): Mus musculus, ip, 0.5 h; for ED (1 degree C): rectal temperature, read-out: Body Temperature: dose able to increase by 1° C. the hypothermic effect induced by carbachol
Procedure: The anticholinergic activity of the compounds was determined by evaluating the capacity to inhibit cholinomimetic effects induced by carbachol. Atropine sulphate was used as reference product.
CD1 male mice are used weighing 25 to 30 g. They are divided into groups of 5 animals and treated by intraperitoneal route, in scaled doses, with the products or with 0.25% of Methocel for the controls. 10 animals are used for each dose. 30 minutes after the administration of the compounds, the mice are subcutaneously injected with 1 mg/kg of carbachol, dissolved in physiological serum.
Each animal was examined 30 minutes after the injection of carbachol to evaluate the presence of diarrhea, salivation and watering of the eyes; the body temperature was also measured using a thermocouple inserted 1.5 cm into the rectum.
For each compound, there was determined, and recorded in the following table, the dose able to inhibit, in 50% of the animals, the appearance of peripheral cholinomimetic symptoms induced by carbachol, and to increase by 1° C. the hypothermic effect induced by the cholinergic agent.

[3] = test system: contractions induced by barium chloride, isolated ileum; assay: Antagonism of barium chloride-induced contractions, isolated guinea-pig ileum; conditions: barium chloride 2×10^-4 M; contact time one minute; read-out: Antagonism with various agents (IC50): BaCL2
Procedure: (§1) The interaction of the compounds with various receptors was evaluated on the isolated ileum of a guinea-pig according to the following method.
(§2) Segments of the ileum of guinea-pigs of 2.5-3 cm were washed and immediately suspended in a bath containing 10 ml of Tyrode's solution at 37° C. and aerated with a mixture of oxygen (95%) and carbon dioxide (5%). After a stabilization period of at least 30 minutes contractions were recorded, while the preparation was maintained under constant tension of 1 g, by means of a detector connected to a polygraph. The agonistic action was evaluated by leaving the compound in contact with the isolated tissue for a period necessary to show the maximum […]; then it was washed with the Tyrode's solution. The following dose was added only after the preparation had returned to its base line. Arecoline was used as a reference product. The antagonist action was evaluated on the contractions induced by acetylcholine (1×10^-6 M), histamine (1×10^-5 M), serotonine (1×10^-6 M) and barium chloride (2×10^-4 M). […] The contact time before adding the agonist was one minute.
(§3) For each compound the does response curves are obtained with 4 to 6 different concentrations and 3 to 5 independent tests. The agonist activity is expressed by pD2 (negative logarithm of the dose which produces 50% of the maximum effect).

isolated ileum = assay: Agonist action on isolated guinea-pig ileum; conditions: negative logarithm of the dose producing 50% of maximum effect
Procedure: as §1, §2, §3

[4] = test system: contractions induced by acetylcholine, isolated colon; assay: Antagonism of acetylcholine-induced contractions, isolated colon of rat; conditions: acetylcholine 3×10^-6 M; contact 3 minutes
Procedure: The remarkable antagonist action of the compounds of the invention was confirmed on the isolated colon of rats. In this test it was established whether the antagonist activity was of competitive or non-competitive type.
(§4) The following method was used: segments of the colon of rats of about 2.5 cm are washed and suspended in an insulated bath containing 10 ml of a solution of De Jalon having the following composition: (mM): NaCl 154; KCl 5.7; CaCl2 0.27; NaHCO3 5.9 and glucose 2.5. The temperature of the bath is maintained at 32° C. In these conditions, while maintaining the preparation under a tension of 1 g, the spontaneous activity of the colon is minimal. After a stabilization period of at least 30 minutes, the tension variations are recorded using an isometric transducer connected to a recorder. A series of tests was carried out to evaluate the antagonist activity in relation to the contractions induced by a maximum dose of acetylcholine. (3×10^-6 M).
The compounds are left in contact with the preparation for 3 minutes before adding acetylcholine.
Atropine was used as a reference product. For each compound the dose-response curves are obtained with 4 to 6 different concentrations and 3 to 5 independent tests.

[5] = test system: contractions induced by acetylcholine, isolated ileum; assay: Antagonism of acetylcholine-induced contractions, isolated guinea-pig ileum; conditions: acetylcholine 1×10^-6 M; contact time one minute; read-out: Antagonism with various agents (IC50): Ach.
Procedure: as §1, §2, §3

[6] = target: T1, muscarine receptors, involved in the contractions of the colon (Rattus norvegicus, UniProt P08483); assay: Antagonist affinity and type of antagonism (Schild), isolated colon of rat
T1 construct: segments of the colon of rats of about 2.5 cm; from tissue; host or cells: isolated rat colon segments
T1 sequence (P08483 whole entry): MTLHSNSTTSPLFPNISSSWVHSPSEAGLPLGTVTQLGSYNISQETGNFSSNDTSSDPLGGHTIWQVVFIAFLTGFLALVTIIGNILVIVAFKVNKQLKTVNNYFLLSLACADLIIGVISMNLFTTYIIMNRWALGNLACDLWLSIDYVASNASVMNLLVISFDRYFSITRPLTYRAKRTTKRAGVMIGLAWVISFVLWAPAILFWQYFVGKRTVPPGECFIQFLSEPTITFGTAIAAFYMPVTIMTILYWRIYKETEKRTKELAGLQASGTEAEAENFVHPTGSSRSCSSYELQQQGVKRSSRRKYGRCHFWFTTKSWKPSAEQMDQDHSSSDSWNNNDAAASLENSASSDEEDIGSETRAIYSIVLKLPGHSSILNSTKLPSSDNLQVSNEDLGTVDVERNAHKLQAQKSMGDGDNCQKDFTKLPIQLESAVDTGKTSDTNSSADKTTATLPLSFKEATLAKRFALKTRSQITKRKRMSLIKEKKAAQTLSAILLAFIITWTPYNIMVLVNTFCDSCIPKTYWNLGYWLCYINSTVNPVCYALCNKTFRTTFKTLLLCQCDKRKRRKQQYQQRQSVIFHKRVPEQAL
Procedure: as §4
For each compound the dose-response curves are obtained with 4 to 6 different concentrations and 3 to 5 independent tests.
In a second series of tests the acetylcholine is added to the bath in cumulative doses according to the van Rossum method (J. M. van Rossum, Arch, Int. Pharmacodyn. 143, 299, 1963). Having obtained two equal and consecutive dose-response curves with acetylcholine, a third dose-responsecurve is obtained in the presence of the compound (contact time of compound before acetylcholine=5 min.) Each compound was tested with 3-4 different concentrations
The antagonist affinity and the type of antagonism (competitive, non-competitive) for the muscarine receptors was calculated according to Schild's method (H. D. Schild, Brit. J. Pharmacol. 2, 189, 1947).

[7] = i.p., carbachol 1 mg/kg s.c. 30 min later, read-out: dose able to inhibit, in 50% of the animals, Diarrhea
[8] = i.p., carbachol 1 mg/kg s.c. 30 min later, read-out: dose able to inhibit, in 50% of the animals, Salivation
[9] = i.p., carbachol 1 mg/kg s.c. 30 min later, read-out: dose able to inhibit, in 50% of the animals, Watering of Eyes
[10] = i.p., carbachol 1 mg/kg s.c. 30 min later

- solubility ([1]; 2N hydrochloric acid): insoluble
- solubility ([1]; 2N sodium hydroxide): insoluble
- solubility ([1]; acetone): slightly soluble
- solubility ([1]; alcohol at 95°): slightly soluble
- solubility ([1]; benzene): slightly soluble
- solubility ([1]; chloroform): Soluble
- solubility ([1]; ethyl ether): insoluble
- solubility ([1]; water): insoluble
Structure (SMILES): CN(C)c1ccc(S(=O)(=O)N2CCCC2=O)cc1 [Example 3]

Structure (SMILES): O=C1CCCN1S(=O)(=O)c1ccc(N2CCCCC2)cc1 [Example 10, 1-[4-(1-piperidinyl)phenylsulphonyl]-2-pyrrolidinone]
- ED50 [2, 7]: 3 mg/kg
- ED50 [2, 8]: 50 mg/kg
- ED50 [2, 9]: > 50 mg/kg
- ED (1 degree C) [2, 10]: > 50 mg/kg
- selective anticholinergic action in vivo ([2]; i.p., mice, in words): selective anticholinergic action on the intestinal musculature

Structure (SMILES): COc1ccc(Cc2nccc3cc(OC)c(OC)cc23)cc1OC [Papaverine, reference compound]
- IC50 [3]: 45000 nM

Structure (SMILES): COC(=O)C1=CCCN(C)C1 [Arecoline, reference compound]
- Agonist Action (pD2) (isolated ileum): 6.68

Structure (SMILES): C[N+](C)(C)CCOC(N)=O [carbachol, reference compound]
- decrease in rectal temperature ([2]; carbachol 1 mg/kg s.c., control mice): about 2.5 °C
- induction of diarrhea, salivation and watering of the eyes ([2]; carbachol 1 mg/kg s.c., control mice, in words): induced diarrhea, salivation and watering of the eyes in all the control mice

Structure (SMILES): O=C1CCCN1S(=O)(=O)c1ccc(N2CCCCCC2)cc1 [Example 18, 1-[4-(4-hexahydroazepin)phenylsulphonyl]-2-pyrrolidinone]
- ED50 [2, 7]: 1 mg/kg
- ED50 [2, 8]: 15 mg/kg
- ED50 [2, 9]: 50 mg/kg
- ED (1 degree C) [2, 10]: 15 mg/kg

Structure (SMILES): CN1[C@@H]2CC[C@H]1C[C@@H](OC(=O)C(CO)c1ccccc1)C2 (stereo partly shown) [Atropine, reference compound]
- ED50 ([2]; read-out: dose able to inhibit, in 50% of the animals, Diarrhea): 0.04 mg/kg
- ED50 ([2]; read-out: dose able to inhibit, in 50% of the animals, Salivation): 0.06 mg/kg
- ED50 ([2]; read-out: dose able to inhibit, in 50% of the animals, Watering of Eyes): 0.05 mg/kg
- IC50 [4]: 27 nM
- IC50 [5]: 9.5 nM
- "Slope" of Schild plot, isolated colon of rat ([6]; cumulative acetylcholine, Schild's method, contact 5 min): 0.97
- displacement of the dose-response curve of acetylcholine ([6]; isolated colon of rat, in words): parallel displacement towards the right of the dose-response curve of acetyl-choline without reducing the maximum contraction
